Test results: US11453640B2, “Small molecules for disrupting the super elongation complex and inhibiting transcription elongation for cancer therapy” (NORTHWESTERN UNIVERSITY, priority 2018, dated 2022)

Legend:
[1] = system: SEC components AFF1 and AFF4; test: Western blotting of SEC and P-TEFb component protein levels in treated cells; assay type: cell-based, human; conditions: HEK293T and HCT-116 cells, 20 μM, 6 hr
Excerpt: (§1) FIG. 1. Peptidomimetic identification of disruptors of the AFF4-CCNT1 interaction within the Super Elongation Complex. (A) Schematic for the identification of small molecule inhibitors of the AFF4-CCNT1 interaction using in silico high-throughput screening. Compounds from the ZINC database were docked with the AFF4-CCNT1 structure (4IMY) using a three-tier glide-docking algorithm, which led to 40 candidates. Residues forming the deep binding pocket of CCNT1 are labeled orange and residues of the AFF4 peptide are labeled red. (B) Validation screening identified KL-1 as a potential SEC disruptor using AlphaLISA screening. […] The Ki constants of both compounds were measured with the AlphaLISA assays. […] 5 μl, 10 and 20 μl cell lysates were loaded and the protein levels of AFF1, AFF4, CCNT1, CDK9 and Tubulin (load control) were determined by western blotting.
FIG. 8, related to FIG. 1. […] 293T cells were treated with 20 μM of KL-1 or KL-2 for 6 hr, and the protein levels of BRD2, BRD4, Pol II (RPB1), SPT5, MED26, MYC, HSP90 (load control) and Tubulin (load control) were measured by western blotting. […] HCT-116 cells were treated with 20 μM of KL-1 or KL-2 for 6 hr, and the protein levels of AFF1, AFF4, CCNT1, CDK9 and Tubulin (load control) were determined by western blotting. […] The log2CPM (counts per million) of the SEC subunits were calculated with HTseq. […]

[2] = system: AFF1 and AFF4 occupancy on chromatin; test: ChIP-seq of AFF1 and AFF4 chromatin occupancy in HEK293T cells; assay type: cell-based, human; conditions: 6 hr
Excerpt: as §1
Chromatin Immunoprecipitation Sequencing. […] ChIP-seq reads were aligned to the Drosophila genome (UCSC dm3) or human genome (UCSC hgl9). Alignments were processed with Bowtie version 1.1.2, allowing only uniquely mapping reads with up to two mismatches within the 50 bp read. The resulting reads were extended to 150 bp toward the interior of the sequenced fragment and normalized to total reads aligned (reads per million, r.p.m.). […] P-values were calculated with a two-sided Kolmogorov-Smirnov test. […]

## COc1cccc(C(=O)CC(=O)C(=O)Nc2cc(Cl)ccc2C)c1 [KL-1, N-(5-chloro-2-methylphenyl)-4-oxo-4-(3-methoxyphenyl)-2-oxobutanamide]
[1]
  protein levels of CCNT1, CDK9, Pol II, BRD2 and BRD4: no major effect
  protein levels of SEC components AFF1 and AFF4: led to depletion of SEC components AFF1 and AFF4
[2]
  chromatin occupancy of AFF1 and AFF4: decreased occupancy of AFF1 and AFF4
